A word on the melting point: it is the temperature, or range, at which the solid turns liquid.

In a melting point compilation (Tetko et al.; mined from patent text by program, amines drawn as free bases though some values may be those of a salt) one finds melting point data, which are given here for 62 compounds.

`CS(=O)(=O)c1ccc(-n2nc(CNC(=O)Nc3ccc(C(F)(F)F)cc3)cc2-c2ccccc2)cc1` yielded a melting point of 129 to 132 °C.
With `CC(SC1COC(c2ccc(C(=O)Nc3ccc(Cl)cc3)cc2)OC1)C(O)(Cn1cncn1)c1ccc(F)cc1F` (configuration not stated), the melting point amounted to 210 °C.
The compound `CN(C(=O)c1ccc2nonc2c1)C1CCC1` displayed a melting point of 51 to 52 °C.
With `Cc1ccc(C(=O)N(C)Cc2cccc(-c3ccc(CC4SC(=O)NC4=O)cc3)c2)cc1` (configuration not stated), the melting point was found to be 198 °C.
For `C[C@@H](Oc1cc(-c2cnn(C3CCNCC3)c2)cnc1N)c1c(Cl)ccc(F)c1Cl`, the melting point was found to be 194 °C.
The figure for `NC(=O)n1ccc(-c2ccc(Oc3ccc(N)cc3)cc2)n1` is 158 to 160 °C; for `CCN1c2ccc(C)cc2C2CN(CCCC(=O)c3ccc(F)cc3)CCC21` (configuration not stated) it is 150 to 153 °C; for `O=C(CBr)c1ccc(Cl)cc1OCc1ccccc1` it is 75 to 78 °C.
With `CC(C)c1ccc2c(c1)OC1(O)c3ccccc3C(=O)C21N` (configuration not stated), the melting point lay within 151 to 152 °C.
The compound `CCc1c(-c2ccc(OCc3ccccc3)cc2)c2cc(COC)c3cccc1n32` yielded a melting point of 111 to 113 °C.
As to `CCc1c(C(C)C)cc(C(C)C)c(C(C)O)c1-c1ccc(F)cc1` (single isomer, unassigned; (+)), the melting point lay in the range of 143 to 145 °C.
`Cc1ccc(-n2cccc2-c2ccc(S(N)(=O)=O)cc2)cc1` showed a melting point of 131 to 134 °C.
As for `CCCCCc1c(-c2ccc3cc(OC)ccc3c2)n(Cc2ccccc2)c2ccccc12`, the melting point lay within 76 to 80 °C.
Consider `CCn1c(=O)c2c(nc(/C=C/c3cccc(O)c3O)n2C)n(CC)c1=O`, for which the melting point lay in the range of 242 to 244 °C.
Compound `N#CC(=C1CCN(Cc2ccccc2)CC1)c1ccc(F)cc1` showed a melting point of 81 to 83 °C.
Turning to `COc1cc(Nc2c(C#N)cnc3ccc(/C=C/CCN4CCOCC4)cc23)cc(OC)c1OC`, the melting point lay in the range of 86 to 87 °C.
`CC(C)c1cccc(C(C)C)c1NC(=O)CN[C@H](C)c1ccccc1` had a melting point of 119 to 120 °C.
Turning to `COC(=O)c1cnc2cccc(OC)c2c1`, the melting point came out at 102 °C.
As for `COC(=O)c1cc2c(n(Cc3ccc(C#N)cc3)c1=O)CCCCCC2`, the melting point lay in the range of 72 to 75 °C.
`N#Cc1ccc(Oc2ccc(N)c(CN)c2)cc1` returned a melting point of 80 to 82 °C.
`CNC(=O)[C@]1(n2cnc3c(NCc4cccc(I)c4)nc(Cl)nc32)SC[C@H](O)[C@@H]1O` had a melting point of 205 to 207 °C.
In turn, `CC(CN1CCCC1)N1c2ccccc2Sc2ccc(C(=O)NCc3ccccc3[N+](=O)[O-])cc21` (racemic) displayed a melting point of 95 °C.
`CCCCC(=O)Nc1ccn(C2OC(CO)C(O)C2O)c(=O)n1` (configuration not stated) gave a melting point of 132 to 135 °C.
With `O=C(NCCCn1ccnc1)Nc1ccc(Cl)cc1` the figure was 123 to 125 °C; with `CN(C)c1ccc(C=CC(O)c2cnc3sc4c(n23)CCCCC4)cc1` (configuration not stated), 168 to 170 °C.
`CCOC(=O)C=Cc1cc([N+](=O)[O-])c(F)cc1Cl` registered a melting point of 86 to 88 °C.
`CCOc1ccc(-c2ccc3c(c2)C=C(C(=O)OC)CCS3(=O)=O)cc1` had a melting point of 173 to 175 °C.
Consider `O=C1O[C@@H](COc2cnsn2)CN1c1ccc(C2=CCOCC2)c(F)c1`, for which the melting point fell in the range of 146 to 148 °C.
Compound `CCOC(=O)c1csc(-n2ccnc2)n1` showed a melting point of 107 to 109 °C.
The figure for `COc1ccc(Nc2cncc(-c3cccc(Nc4ccccn4)c3)c2)cc1` is 161 to 165 °C; for `Cc1ccc(S(=O)(=O)Nc2c(C)c(C)c3c(c2C)CC(C)(C)O3)cc1` it is 219 to 220 °C; for `CC(O)(CC(=O)O)c1ccc(-c2ccc(F)cc2F)cc1` (configuration not stated) it is 121 to 123 °C.
`COc1ccc(C(C)(C)C)cc1C(N)=NO` gave a melting point of 132 to 133 °C.
The compound `CCOC(=O)c1ccc(-n2nc(-c3ccccc3O)nc2-c2ccccc2O)cc1` returned a melting point of 148 to 149 °C.
On to `COC(=O)C1CCc2c(oc3cccc(Cl)c23)C1` (configuration not stated), for which the melting point was in the range of 99 to 102 °C.
With `O=C1CCC(N2C(=O)c3ccc(CNC(=O)c4ccc(Cl)cc4)cc3C2=O)C(=O)N1` (configuration not stated) the figure was 178 to 180 °C.
For `COc1ccc2c(=O)[nH]ncc2c1`, the melting point is 200 to 205 °C.
Compound `O=C(Nc1cccc2c(N3CCN(Cc4ccccc4)C3=O)ccnc12)c1c(Cl)cccc1Cl` showed a melting point of 178 to 191 °C.
The figure for `CC1(C(=O)O)CCc2cc(O)c(C(C)(C)C)cc2O1` (configuration not stated) is 218 to 221 °C; for `CC(C)C1C(O)=CC(=O)N1c1ccc(C#N)c(Cl)c1` (configuration not stated) it is 217 to 219 °C; for `CCCCCCCCCCc1nc(N(C)C)nc(OC)c1Br` it is 45 to 46 °C.
The figure for `O=C1NC(=O)c2nc3ccccc3cc21` is more than 300 °C; for `CC(C)[C@H](NC(=O)[C@@H]1CCCN1C(=O)[C@@H](NC(=O)Cn1ccc(=O)n(CC(=O)O)c1=O)C(C)C)C(=O)c1nc2ccccc2o1` it is 135 to 140 °C.
With `COC(=O)CC1c2cc([N+](=O)[O-])ccc2N(C(C)=O)C1C` (configuration not stated), the melting point worked out at 106 °C.
`CNCC(O)C1=CNC2C=CC=CC12` (configuration not stated) yielded a melting point of 117 to 120 °C.
With `CCCCc1nc(Cl)c(CC(=O)OCC)c(Cc2ccc(C(=O)OC)cc2)n1`, the melting point is 78 °C.
`CCOC(=O)c1c(C)nc2c(c1NCCCN1CCOCC1)NC(=O)CN2` had a melting point of 168 to 170 °C.
For `CC(=O)NC[C@H]1CN(c2ccc(N3CCC(=C(C#N)c4cccs4)CC3)c(F)c2)C(=O)O1`, the melting point lay in the range of 260 to 263 °C.
The compound `CC(C)(C)N1C(=O)c2cnc(-c3ccccc3)nc2N(C(=O)CN2CCCCC2)c2ccccc21` registered a melting point of 193 to 194 °C.
`COc1cccc2c(C#Cc3ccccc3)c3cccc(OC)c3c(C#Cc3ccccc3)c12` gave a melting point of 178 to 180 °C.
As for `ON=C(c1ccc(O)c(Cl)c1Cl)c1cccc2ccccc12`, the melting point lay within 145 to 160 °C.
On to `CC(C)(O)CN1CCN(c2ccc3nc(-c4cccs4)c(-c4ccncc4)n3n2)CC1`, for which the melting point fell in the range of 165 to 168 °C.
Compound `O=c1c2cnc(-c3ccccc3)nc2sn1CCc1ccccn1` returned a melting point of 132 to 133 °C.
With `Cc1cc2c(=O)c3ccccc3oc2c2c1OC(C(=O)O)C2` (configuration not stated) the figure was 292 to 295 °C; with `NC(=O)c1ccc(C(c2ccccc2)(c2ccccc2)c2ccccc2)cn1`, 239 to 240 °C.
`Cc1ccc(-c2csc(-c3ccc(C(=O)O)cc3)n2)cc1` came in with a melting point of 289 to 290 °C.
The figure for `O=C1c2cc(Cl)c(Cl)cc2C(=O)N1CCCl` is 144 to 145 °C.
`Cc1ccc(S(=O)(=O)Oc2c(-c3ccc(S(C)(=O)=O)cc3)cnn(-c3cccc(Cl)c3)c2=O)cc1` yielded a melting point of 198 to 200 °C.
For `COc1ccc2cc([C@H](C)C(=O)OCC(=O)N(C)CCO[N+](=O)[O-])ccc2c1`, the melting point was 80 to 81 °C.
As to `COc1ccc2c(c1)C(OC)(c1ccccc1)OC21CCN(Cc2ccccc2)CC1` (configuration not stated), the melting point lay within 129 to 133 °C.
Compound `C#CCN1C(=O)C(CC#N)C(CC)(CC)N=C1c1ccccc1` (configuration not stated) gave a melting point of 178 to 180 °C.
`COc1ccc(-c2cc(SC)sc2-c2ccc(OC)cc2)cc1` had a melting point of 106 to 108 °C.
